Values of other authors, collected in patent US11697638B2, “5-methoxy-N,N-dimethyltryptamine crystalline forms” (Small Pharma Ltd, priority 2021, dated 2023).
Where two headings read alike, the source gives them in different places.

Details: self-report, uncontrolled setting

## COc1ccc2[nH]cc(CCN(C)C)c2c1 [5-MeO-DMT, 5-methoxy-N,N-dimethyltryptamine]
anxiety
  participants with psychiatric diagnoses indicating that their symptoms improved following 5-MeO-DMT use: 69%
depression
  participants with psychiatric diagnoses indicating that their symptoms improved following 5-MeO-DMT use: 77%
post-traumatic stress disorder
  participants with psychiatric diagnoses indicating that their symptoms improved following 5-MeO-DMT use: 79%
